“And” between values parts separate entries of the source, which are not always exact repeats. Equal entries are not always repeated. “Also recorded” adds a separate entry of the source.
How the values were obtained:
Escherichia coli DSA 443 [1] = assay: Murine urinary tract infection (UTI) model, Example 1: colony counts in urine, bladder and kidney; assay type: in vivo; conditions: for Mean colony counts + SEM, bladder day 3 / Mean colony counts + SEM, kidney day 3 / Mean colony counts + SEM, urine day 1 / Mean colony counts + SEM, urine day 2 / Mean colony counts + SEM, urine day 3: female OF-1 mice; for Mean colony counts + SEM, urine day 1: day 1 post infection, before first treatment; for Mean colony counts + SEM, urine day 2: day 2 post infection; for Bacterial reduction in the urine compared to vehicle treatment: p<0.001
Escherichia coli DSA 443 [2] = assay: Murine urinary tract infection model, Example 2 (carried out as described in Example 1); assay type: in vivo; conditions: for Mean colony counts ± SEM, bladder day 3 / Mean colony counts ± SEM, kidney day 3 / Mean colony counts ± SEM, urine day 1 / Mean colony counts ± SEM, urine day 3: mice; for Mean colony counts ± SEM, bladder day 3 / Mean colony counts ± SEM, kidney day 3 / Mean colony counts ± SEM, urine day 3: day 3 post infection; for Mean colony counts ± SEM, urine day 1: day 1 post infection, before first treatment; for Bacterial reduction in the kidneys compared to vehicle treatment / Bacterial reduction in the urine compared to vehicle treatment / Bacterial reduction in the bladder compared to vehicle treatment: 10 mg/kg i.v. BID; for Bacterial reduction in the kidneys compared to vehicle treatment: p<0.05; for Effect of treatment compared to Meropenem: 10 mg/kg vs 40 mg/kg Meropenem; for Bacterial reduction in the urine compared to vehicle treatment / Bacterial reduction in the bladder compared to vehicle treatment: after 2 days of treatment; for Bacterial reduction in the urine compared to vehicle treatment: p<0.001; for Bacterial reduction in the bladder compared to vehicle treatment: p<0.01
Experimental: The efficacy of Arenicin administered BID i.v. days 1 and 2 post infection at a rate of 10 ml/kg to female OF-1 mice (14/group), at a dosage of 10 mg/kg, was assessed against E. coli DSA 443. Treatment with 40 mg/kg Meropenem was included as a positive control and treatment with vehicle was included as a negative control.
Starting on day −4 before inoculation, mice were given drinking water containing 5% glucose. On day 0, the bladder of each mouse was emptied of urine, and each mouse was inoculated with 50 microliters bacteria suspension (E. coli DSA 443 9.3 log10 CFU/ml) via a catheter in the urethra into the bladder.
Urine was sampled from all mice at 24 hours post infection, before the first treatment, and colony counts were determined. 48 and 72 hours post infection, urine was sampled from all mice and kept at room temperature until analyzed. CFU was determined in urine samples within 2-3 hours after sampling. On day 3, mice were sacrificed by cervical dislocation and the bladders and kidneys were collected and stored at −80° C. until analyses. Frozen organs were thawed and homogenized with steel beads on a tissue lyser. All samples, urine, kidney and bladder, were 10 fold diluted in saline and 20 microliter spots were applied on blue agar plates in duplicates. Also undiluted urine (100 microliters if possible) was spread on a separate agar plate to determine the colony counts lowest possible detection level (10 CFU/ml). All agar plates were incubated 18-22 hrs at 35° C. in ambient air.
The CFU numbers are log10 transformed before performing calculations to obtain a normal (or closer to normal) distribution. The data are presented below in Table 1 as mean±SEM. Significance levels were calculated with one-way ANOVA, Dunnett's multiple comparison test and are indicated by the stars in the figures.
The experiment was carried out as described in Example 1.
The efficacies of Variant1 and Variant2 (10 mg/kg) (formulated in Ringer acetate pH 6) were investigated following intravenous (i.v.) administration BID day 1 and day 2 post infection with Escherichia coli DSA 443 (clinical isolate, SSI) in a murine Urinary Tract Infection model. Treatment with 40 mg/kg Meropenem was included as a positive control group.

[3] = 10 mg/kg i.v. BID day 1 and day 2

## C[C@@H](O)[C@H]1C(=O)N2C(C(=O)O)=C(S[C@@H]3CN[C@H](C(=O)N(C)C)C3)[C@H](C)[C@H]12 [Meropenem, reference compound]
Escherichia coli DSA 443 [1]; 40 mg/kg, day 3 post infection
  Bacterial loads in the kidneys compared to vehicle: slightly, but not significantly, reduced
Escherichia coli DSA 443 [1]; bladder, day 3 post infection, 40 mg/kg (positive control)
  Mean colony counts + SEM, bladder day 3: 3.9 ± 0.3 log10 CFU
Escherichia coli DSA 443 [1]; day 3 post infection, 40 mg/kg (positive control)
  Mean colony counts + SEM, kidney day 3: 1.8 ± 0.3 log10 CFU
Escherichia coli DSA 443 [1]; urine, 40 mg/kg group (positive control)
  Mean colony counts + SEM, urine day 1: 7.0 ± 0.4 log10 CFU
Escherichia coli DSA 443 [1]; urine, 40 mg/kg (positive control)
  Mean colony counts + SEM, urine day 2: 2.7 ± 0.3 log10 CFU
Escherichia coli DSA 443 [1]; urine, day 3 post infection, 40 mg/kg (positive control)
  Mean colony counts + SEM, urine day 3: 2.1 ± 0.3 log10 CFU
Escherichia coli DSA 443 [2]; 40 mg/kg (positive control)
  Mean colony counts ± SEM, bladder day 3: 3.9 ± 0.2 log10 CFU
  Mean colony counts ± SEM, kidney day 3: 1.8 ± 0.4 log10 CFU
  Mean colony counts ± SEM, urine day 3: 1.8 ± 0.4 log10 CFU
Escherichia coli DSA 443 [2]; 40 mg/kg group (positive control)
  Mean colony counts ± SEM, urine day 1: 6.3 ± 1.0 log10 CFU

## Arenicin: antimicrobial polypeptide having the amino acid sequence shown in SEQ ID NO: 1 (GFCWYVCVYRNGVRVCYRRCN; mat_peptide (1)..(21); listed as Arenicola marina)
Escherichia coli DSA 443 [1]; 10 mg/kg vs 40 mg/kg Meropenem, urine, bladder
  Effect (CFU reduction) compared to Meropenem: comparable to that of Meropenem; also recorded: comparable to the effect of the Meropenem
Escherichia coli DSA 443 [1]; after 1 day of treatment, 10 mg/kg i.v. BID
  Bacterial reduction in the urine compared to vehicle treatment: significant bacterial reduction
Escherichia coli DSA 443 [1]; after 2 days of treatment, 10 mg/kg i.v. BID, 10 mg/kg
  Bacterial reduction in the urine compared to vehicle treatment: significantly (p<0.001) reduced the bacterial loads; also recorded: significant bacterial reduction
Escherichia coli DSA 443 [1]; after 2 days of treatment, 10 mg/kg i.v. BID, p<0.01, 10 mg/kg
  Bacterial reduction in the bladder compared to vehicle treatment: Significant lower (p<0.01) CFU levels; also recorded: significant bacterial reduction
Escherichia coli DSA 443 [1]; day 3 post infection, 10 mg/kg i.v. BID, 10 mg/kg
  Bacterial reduction in the kidneys compared to vehicle treatment: not significantly lower than the vehicle group; also recorded: slight reduction
Escherichia coli DSA 443 [1]; bladder, day 3 post infection, 10 mg/kg i.v. BID days 1 and 2, 10 mg/kg
  Mean colony counts + SEM, bladder day 3: 3.8±0.2 log10 CFU
Escherichia coli DSA 443 [1]; day 3 post infection, 10 mg/kg i.v. BID days 1 and 2, 10 mg/kg
  Mean colony counts + SEM, kidney day 3: 1.9±0.3 log10 CFU
Escherichia coli DSA 443 [1]; urine, 10 mg/kg group, 10 mg/kg
  Mean colony counts + SEM, urine day 1: 6.9±0.3 log10 CFU
Escherichia coli DSA 443 [1]; urine, after one day of treatment, 10 mg/kg i.v. BID, 10 mg/kg
  Mean colony counts + SEM, urine day 2: 3.2±0.5 log10 CFU
Escherichia coli DSA 443 [1]; urine, day 3 post infection, after completed treatment, 10 mg/kg i.v. BID days 1 and 2, 10 mg/kg
  Mean colony counts + SEM, urine day 3: 2.3±0.3 log10 CFU and 2.3 ± 0.2 log10 CFU

## Variant1: antimicrobial polypeptide of SEQ ID NO: 2; Y5N+Y17H substitution as compared to Arenicin (SEQ ID NO: 1) (GFCWNVCVYRNGVRVCHRRCN)
Escherichia coli DSA 443 [2]
  Bacterial reduction in the kidneys compared to vehicle treatment: significant bacterial reduction
  Effect of treatment compared to Meropenem: comparable to the effect of treatment with Meropenem
  Bacterial reduction in the urine compared to vehicle treatment: significant bacterial reduction
  Bacterial reduction in the bladder compared to vehicle treatment: significant bacterial reduction
Escherichia coli DSA 443 [2]; [3]
  Mean colony counts ± SEM, bladder day 3: 3.8 ± 0.4 log10 CFU
  Mean colony counts ± SEM, kidney day 3: 1.3 ± 0.2 log10 CFU
  Mean colony counts ± SEM, urine day 3: 2.6 ± 0.4 log10 CFU
Escherichia coli DSA 443 [2]; 10 mg/kg group
  Mean colony counts ± SEM, urine day 1: 7.1 ± 0.8 log10 CFU

## Variant2: antimicrobial polypeptide of SEQ ID NO: 3; W4G+Y5H substitution as compared to Arenicin (GFCGHVCVYRNGVRVCYRRCN)
Escherichia coli DSA 443 [2]
  Bacterial reduction in the kidneys compared to vehicle treatment: significant bacterial reduction
  Effect of treatment compared to Meropenem: comparable to the effect of treatment with Meropenem
  Bacterial reduction in the urine compared to vehicle treatment: significant bacterial reduction
  Bacterial reduction in the bladder compared to vehicle treatment: significant bacterial reduction
Escherichia coli DSA 443 [2]; [3]
  Mean colony counts ± SEM, bladder day 3: 3.7 ± 0.5 log10 CFU
  Mean colony counts ± SEM, kidney day 3: 1.5 ± 0.4 log10 CFU
  Mean colony counts ± SEM, urine day 3: 3.2 ± 0.5 log10 CFU
Escherichia coli DSA 443 [2]; 10 mg/kg group
  Mean colony counts ± SEM, urine day 1: 5.7 ± 1.0 log10 CFU

Source: US8653024B2, “Use of AMPs for treatment of UTI/cystitis” (Adenium Biotech Aps, priority 2009, dated 2014)
